Reference: patent publication US9732087B2, “Diamino-pyridine, pyrimidine, and pyridazine modulators of the histamine H4 receptor” (JANSSEN PHARMACEUTICA NV, priority 2008, dated 2017)
pKi: −log10 of the molar value.

These compounds were tested against human H4 receptor (Homo sapiens (Human), UniProt Q9H3N8) (assay: Binding assay on recombinant human histamine H4 receptor ([3H]histamine competition, SK-N-MC cell membranes)). Details: membranes harvested with cell harvester; [3H]histamine 10 nM; average of results; read-out: Cell Harvester Ki.
How it was run: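 Membranes from SK-N-MC cells stably or transiently transfected with human H4 receptor, prepared by homogenization and 30,000 g centrifugation in Tris/EDTA. Bound [3H]histamine separated by rapid filtration on PEI-treated GF/C filters, washed with ice-cold Tris/EDTA, counted by scintillation. '>' values denote highest concentration tested.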

Compound	pKi
c1cc(N2C[C@H]3CCN[C@H]3C2)nc(NC2CCCC2)n1 [Example 139, N-Cyclopentyl-4-[(3aR,6aR)-hexahydropyrrolo[3,4-b]pyrrol-5(1H)-yl]pyrimidin-2-amine]	8.10
COCCNc1nccc(N2C[C@H]3CCN[C@H]3C2)n1 [Example 140, 4-[(3aR,6aR)-Hexahydropyrrolo[3,4-b]pyrrol-5(1H)-yl]-N-(2-methoxyethyl)pyrimidin-2-amine]	6.87
C[C@@H](Nc1nccc(N2C[C@H]3CCN[C@H]3C2)n1)c1ccccc1 [Example 141, 4-[(3aR,6aR)-Hexahydropyrrolo[3,4-b]pyrrol-5(1H)-yl]-N-[(1R)-1-phenylethyl]pyrimidin-2-amine]	5.63
Fc1ccc(CNc2nccc(N3C[C@H]4CCN[C@H]4C3)n2)cc1 [Example 142, N-(4-Fluorobenzyl)-4-[(3aR,6aR)-hexahydropyrrolo[3,4-b]pyrrol-5(1H)-yl]pyrimidin-2-amine]	5.15
c1cc(N2C[C@H]3CCN[C@H]3C2)nc(NC2CC2)n1 [Example 143, N-Cyclopropyl-4-[(3aR,6aR)-hexahydropyrrolo[3,4-b]pyrrol-5(1H)-yl]pyrimidin-2-amine]	6.57
COc1ccc(CNc2nccc(N3CCNCC3)n2)cc1 [Example 144, N-(4-Methoxybenzyl)-4-piperazin-1-ylpyrimidin-2-amine]	5.60
CNC1CN(c2ccnc(NC3CC4CCC3C4)n2)C1 (stereo not shown) [Example 147, N-Bicyclo[2.2.1]hept-2-yl-4-[3-(methylamino)azetidin-1-yl]pyrimidin-2-amine]	8.18
Cc1ccc(CNc2nccc(N3CCNCC3)n2)cc1 [Example 156, N-(4-Methylbenzyl)-4-piperazin-1-ylpyrimidin-2-amine]	6.38

Results, then the compound that gave them:

pKi	Compound
6.03	CN[C@H]1CCN(c2ccnc(NC3CC3)n2)C1 [Example 145, N-Cyclopropyl-4-[(3S)-3-(methylamino)pyrrolidin-1-yl]pyrimidin-2-amine]
7.47	N[C@H]1CCN(c2ccnc(NC3CC4CCC3C4)n2)C1 (stereo partly drawn) [Example 146, 4-[(3S)-3-Aminopyrrolidin-1-yl]-N-bicyclo[2.2.1]hept-2-ylpyrimidin-2-amine]
7.62	N[C@H]1CCN(c2ccnc(NCC3CCCC3)n2)C1 [Example 149, 4-[(3S)-3-Aminopyrrolidin-1-yl]-N-(cyclopentylmethyl)pyrimidin-2-amine]
7.53	N[C@@H]1CCN(c2ccnc(NCCCC(F)(F)F)n2)C1 [Example 150, 4-[(3R)-3-Aminopyrrolidin-1-yl]-N-(4,4,4-trifluorobutyl)pyrimidin-2-amine]
5.84	CC(C)(CO)CNc1nccc(N2CC(N)C2)n1 [Example 151, 3-{[4-(3-Aminoazetidin-1-yl)pyrimidin-2-yl]amino}-2,2-dimethylpropan-1-ol]
5.64	CN[C@H]1CCN(c2ccnc(NCCCO)n2)C1 [Example 152, 3-({4-[(3S)-3-(Methylamino)pyrrolidin-1-yl]pyrimidin-2-yl}amino)propan-1-ol]
7.36	CC(C)(CO)CNc1nccc(N2CC[C@@H](N)C2)n1 [Example 153, 3-({4-[(3R)-3-Aminopyrrolidin-1-yl]pyrimidin-2-yl}amino)-2,2-dimethylpropan-1-ol]
6.69	N[C@@H]1CCN(c2ccnc(NCCCO)n2)C1 [Example 154, 3-({4-[(3R)-3-Aminopyrrolidin-1-yl]pyrimidin-2-yl}amino)propan-1-ol]
6.13	NC1CN(c2ccnc(NCCCO)n2)C1 [Example 155, 3-{[4-(3-Aminoazetidin-1-yl)pyrimidin-2-yl]amino}propan-1-ol]
5.67	c1ccc(CNc2nccc(N3CCNCC3)n2)nc1 [Example 157, 4-Piperazin-1-yl-N-(pyridin-2-ylmethyl)pyrimidin-2-amine]
5.46	CN[C@H]1CCN(c2ccnc(NCC(C)(C)CO)n2)C1 [Example 158, 2,2-Dimethyl-3-({4-[(3S)-3-(methylamino)pyrrolidin-1-yl]pyrimidin-2-yl}amino)propan-1-ol]
